The NIST ThermoML archive (doi:10.1016/j.tca.2014.04.018)
Where “and” joins values, the source holds several entries; their conditions need not be identical. Equal entries are not always repeated.

Details: Liquid, Calculated from knudsen effusion weight loss

CCCc1cc(=O)[nH]c(=S)[nH]1 [6-propyl-2-thiouracil]
Details	vapor or sublimation pressure
401.14 K	0.000103 kPa and 0.000101 kPa and 9.7e-05 kPa
403.18 K	0.000124 kPa and 0.000123 kPa and 0.000118 kPa
405.17 K	0.000151 kPa and 0.000144 kPa
407.15 K	0.000196 kPa and 0.000185 kPa and 0.000178 kPa
409.17 K	0.000231 kPa and 0.000224 kPa and 0.000216 kPa
411.16 K	0.000274 kPa and 0.000265 kPa
413.15 K	0.000332 kPa and 0.000325 kPa and 0.000317 kPa
415.17 K	0.00041 kPa and 0.000398 kPa and 0.000382 kPa
417.18 K	0.000484 kPa and 0.000485 kPa and 0.000468 kPa
419.15 K	0.000583 kPa and 0.000558 kPa
421.22 K	0.000714 kPa and 0.000706 kPa and 0.00068 kPa
423.21 K	0.000853 kPa and 0.000839 kPa and 0.00083 kPa
